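All cell lines were grown in 96-well plates and treated with compound for 48 hours. GI50 is the concentration that inhibits growth by half. Definition used: TGI = concentration required for complete inhibition of growth.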
Experiments:
Assay in all cases: NCI-60 cell line screen, 48 h
786-0 renal = test system: 786-0 renal
A498 renal = test system: A498 renal
A549 NSCLC = test system: A549 NSCLC
BT-549 breast = test system: BT-549 breast
CAKI-1 renal = test system: CAKI-1 renal
CCRF-CEM leukemia = test system: CCRF-CEM leukemia
COLO 205 colon = test system: COLO 205 colon
DU-145 prostate = test system: DU-145 prostate
EKVX NSCLC = test system: EKVX NSCLC
HCT-116 colon = test system: HCT-116 colon
HL-60(TB) leukemia = test system: HL-60(TB) leukemia
HOP-62 NSCLC = test system: HOP-62 NSCLC
HOP-92 NSCLC = test system: HOP-92 NSCLC
HS 578T breast = test system: HS 578T breast
HT29 colon = test system: HT29 colon
IGROV1 ovarian = test system: IGROV1 ovarian
K-562 leukemia = test system: K-562 leukemia
KM12 colon = test system: KM12 colon
LOX IMVI melanoma = test system: LOX IMVI melanoma
M14 melanoma = test system: M14 melanoma
MALME-3M melanoma = test system: MALME-3M melanoma
MCF7 breast = test system: MCF7 breast
MDA-MB-231 breast = test system: MDA-MB-231 breast
MDA-MB-435 = test system: MDA-MB-435
NCI-H226 lung = test system: NCI-H226 lung
NCI-H23 lung = test system: NCI-H23 lung
NCI-H460 lung = test system: NCI-H460 lung
NCI-H522 lung = test system: NCI-H522 lung
NCI/ADR-RES ovarian = test system: NCI/ADR-RES ovarian
OVCAR-3 ovarian = test system: OVCAR-3 ovarian
OVCAR-4 ovarian = test system: OVCAR-4 ovarian
OVCAR-5 ovarian = test system: OVCAR-5 ovarian
OVCAR-8 ovarian = test system: OVCAR-8 ovarian
PC-3 prostate = test system: PC-3 prostate
RPMI-8226 leukemia = test system: RPMI-8226 leukemia
RXF 393 renal = test system: RXF 393 renal
SF-268 CNS = test system: SF-268 CNS
SF-295 CNS = test system: SF-295 CNS
SF-539 CNS = test system: SF-539 CNS
SK-MEL-2 melanoma = test system: SK-MEL-2 melanoma
SK-MEL-28 melanoma = test system: SK-MEL-28 melanoma
SK-MEL-5 melanoma = test system: SK-MEL-5 melanoma
SK-OV-3 ovarian = test system: SK-OV-3 ovarian
SN12C renal = test system: SN12C renal
SNB-19 CNS = test system: SNB-19 CNS
SNB-75 CNS = test system: SNB-75 CNS
SR leukemia = test system: SR leukemia
SW-620 colon = test system: SW-620 colon
T-47D breast = test system: T-47D breast
TK-10 renal = test system: TK-10 renal
U251 CNS = test system: U251 CNS
UACC-257 melanoma = test system: UACC-257 melanoma
UACC-62 melanoma = test system: UACC-62 melanoma
UO-31 renal = test system: UO-31 renal

Q: What does the source list for `CN1CCN(Cc2ccc(Nc3ncc(Cl)c(Nc4ccccc4S(=O)(=O)N(C)C)n3)cc2)CC1`?
A: GI50 (786-0 renal): 52.4 nM; TGI (786-0 renal): 1280 nM; GI50 (A498 renal): 114 nM; TGI (A498 renal): 327 nM; GI50 (A549 NSCLC): 36.5 nM; TGI (A549 NSCLC): 1700 nM; GI50 (BT-549 breast): 137 nM; TGI (BT-549 breast): 374 nM; GI50 (CAKI-1 renal): 37.7 nM; TGI (CAKI-1 renal): 1090 nM; GI50 (CCRF-CEM leukemia): < 18.7 nM; TGI (CCRF-CEM leukemia): > 100000 nM; GI50 (COLO 205 colon): 27.8 nM; TGI (COLO 205 colon): 222 nM; GI50 (DU-145 prostate): 51.6 nM; TGI (DU-145 prostate): > 100000 nM; GI50 (EKVX NSCLC): 31.7 nM; TGI (EKVX NSCLC): 366 nM; GI50 (HCT-116 colon): < 15.7 nM; GI50 (HL-60(TB) leukemia): 17.5 nM; TGI (HL-60(TB) leukemia): 198 nM; GI50 (HOP-62 NSCLC): 34.4 nM; TGI (HOP-62 NSCLC): 900 nM; GI50 (HOP-92 NSCLC): 99.9 nM; TGI (HOP-92 NSCLC): 1680 nM; GI50 (HS 578T breast): 98.4 nM; TGI (HS 578T breast): 1180 nM; GI50 (HT29 colon): 30.8 nM; TGI (HT29 colon): 577 nM; GI50 (IGROV1 ovarian): 24.9 nM; TGI (IGROV1 ovarian): 1630 nM; GI50 (K-562 leukemia): 38.6 nM; TGI (K-562 leukemia): > 100000 nM; GI50 (KM12 colon): 24.4 nM; TGI (KM12 colon): > 100000 nM; GI50 (LOX IMVI melanoma): < 14.3 nM; TGI (LOX IMVI melanoma): 124 nM; GI50 (M14 melanoma): 60.8 nM; TGI (M14 melanoma): 277 nM; GI50 (MALME-3M melanoma): 92 nM; TGI (MALME-3M melanoma): 379 nM; GI50 (MCF7 breast): < 10 nM; TGI (MCF7 breast): 1170 nM; GI50 (MDA-MB-231 breast): 22.2 nM; TGI (MDA-MB-231 breast): 376 nM; GI50 (MDA-MB-435): 27.4 nM; TGI (MDA-MB-435): 429 nM; GI50 (NCI-H226 lung): 91.5 nM; TGI (NCI-H226 lung): 859 nM; GI50 (NCI-H23 lung): 33.8 nM; TGI (NCI-H23 lung): 358 nM; GI50 (NCI-H460 lung): < 13.1 nM; TGI (NCI-H460 lung): 198 nM; GI50 (NCI-H522 lung): < 24.6 nM; TGI (NCI-H522 lung): 255 nM; GI50 (NCI/ADR-RES ovarian): 74.7 nM; TGI (NCI/ADR-RES ovarian): 1240 nM; GI50 (OVCAR-3 ovarian): 61 nM; TGI (OVCAR-3 ovarian): > 100000 nM; GI50 (OVCAR-4 ovarian): 72 nM; TGI (OVCAR-4 ovarian): 649 nM; GI50 (OVCAR-5 ovarian): 37.8 nM; TGI (OVCAR-5 ovarian): > 100000 nM; GI50 (OVCAR-8 ovarian): 73.8 nM; GI50 (PC-3 prostate): 73.1 nM; TGI (PC-3 prostate): > 100000 nM; GI50 (RPMI-8226 leukemia): 10.3 nM; TGI (RPMI-8226 leukemia): 1240 nM; GI50 (RXF 393 renal): 33 nM; TGI (RXF 393 renal): 122 nM; GI50 (SF-268 CNS): 99.7 nM; TGI (SF-268 CNS): 1020 nM; GI50 (SF-295 CNS): 16.9 nM; TGI (SF-295 CNS): > 100000 nM; GI50 (SF-539 CNS): 114 nM; TGI (SF-539 CNS): 343 nM; GI50 (SK-MEL-2 melanoma): 45.8 nM; TGI (SK-MEL-2 melanoma): 172 nM; GI50 (SK-MEL-28 melanoma): 49.7 nM; TGI (SK-MEL-28 melanoma): 415 nM; GI50 (SK-MEL-5 melanoma): 75.9 nM; TGI (SK-MEL-5 melanoma): 387 nM; GI50 (SK-OV-3 ovarian): 219 nM; TGI (SK-OV-3 ovarian): > 100000 nM; GI50 (SN12C renal): 39.9 nM; TGI (SN12C renal): 1230 nM; GI50 (SNB-19 CNS): 52.9 nM; TGI (SNB-19 CNS): 2960 nM; GI50 (SNB-75 CNS): 94.8 nM; TGI (SNB-75 CNS): 308 nM; GI50 (SR leukemia): < 10 nM; GI50 (SW-620 colon): 25.4 nM; TGI (SW-620 colon): > 100000 nM; GI50 (T-47D breast): 116 nM; TGI (T-47D breast): 965 nM; GI50 (TK-10 renal): 81.9 nM; TGI (TK-10 renal): 1190 nM; GI50 (U251 CNS): 38 nM; TGI (U251 CNS): 1460 nM; GI50 (UACC-257 melanoma): 47.3 nM; TGI (UACC-257 melanoma): 820 nM; GI50 (UACC-62 melanoma): 22.9 nM; TGI (UACC-62 melanoma): 180 nM; GI50 (UO-31 renal): 38.7 nM; TGI (UO-31 renal): 1400 nM

From PubChem BioAssay (NCI)
